Measured values from patent US11078170B2 (Assembly Biosciences, Inc., priority 2017, dated 2021).

system: HBV viral production from HepAD38 cells; test: Activity of test compounds on viral production from HepAD38 cells (viral load by qPCR of HBV core sequence in supernatant); format: cell-based; conditions: Hepatitis B virus, 120 h, 5 days incubation, HBV DNA in supernatant by qPCR, top concentration 10 μM, read-out: Viral Load EC50 Activity range
In short: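 EC50 and CC50 come from four-parameter fits of supernatant viral load and CellTiter-Glo viability, respectively. Viral load was measured by core-region TaqMan qPCR against HBV DNA standards and compared with DMSO controls. Tet-free HepAD38 cells (50,000/well, 2% FBS) were exposed to compound, highest 10 μM, for 5 days at 37° C.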

SMILES | EC50 [µM]
CN1[C@H](C(=O)Nc2ccc(F)c(Cl)c2)C[C@H](c2cc(-c3ccccc3)cs2)NS1(=O)=O [HBV-CSU-148-ISO-I, Cis-N-(3-chloro-4-fluorophenyl)-2-methyl-5-(4-phenylthiophen-2-yl)-1,2,6-thiadiazinane-3-carboxamide 1,1-dioxide] | < 1
CN(C)CCCOc1cccc(C2CC(C(=O)Nc3ccc(F)c(Cl)c3)N(C)S(=O)(=O)N2)c1 (stereo not drawn) [HBV-CSU-209, Cis-N-(3-Chloro-4-fluorophenyl)-5-(3-(3-(dimethylamino)propoxy)phenyl)-2-methyl-1,2,6-thiadiazinane-3-carboxamide 1,1-dioxide] | < 1
CN1[C@H](C(=O)Nc2ccc(F)c(Cl)c2)C[C@H](c2cc(-c3ncn(C)n3)cs2)NS1(=O)=O [HBV-CSU-326-ISO-I, Cis-N-(3-chloro-4-fluorophenyl)-2-methyl-5-(4-(1-methyl-1H-1,2,4-triazol-3-yl)thiophen-2-yl)-1,2,6-thiadiazinane-3-carboxamide 1,1-dioxide] | < 1
CN1[C@H](C(=O)Nc2ccc(F)c(Cl)c2)C[C@H](c2ccc(-c3cnn(CCO)c3)s2)NS1(=O)=O [HBV-CSU-293-ISO-I, Cis-N-(3-chloro-4-fluorophenyl)-5-(5-(1-(2-hydroxyethyl)-1H-pyrazol-4-yl)thiophen-2-yl)-2-methyl-1,2,6-thiadiazinane-3-carboxamide 1,1-dioxide] | < 1
CN1C(C(=O)Nc2ccc(F)c(Cl)c2)CC(c2cc(-c3ccc(C#N)c(F)c3)cs2)NS1(=O)=O (racemic) [HBV-CSU-164, Cis-N-(3-chloro-4-fluorophenyl)-5-(4-(4-cyano-3-fluorophenyl)thiophen-2-yl)-2-methyl-1,2,6-thiadiazinane-3-carboxamide 1,1-dioxide] | < 1
CN1[C@H](C(=O)Nc2ccc(F)c(Cl)c2)C[C@H](c2ccon2)NS1(=O)=O [HBV-CSU-055-ISO-I, Cis-N-(3-chloro-4-fluorophenyl)-5-(isoxazol-3-yl)-2-methyl-1,2,6-thiadiazinane-3-carboxamide 1,1-dioxide] | < 1
CN1C(C(=O)Nc2ccc(F)c(Cl)c2)CC(c2cc(-c3ncnn3C)cs2)NS1(=O)=O (racemic) [HBV-CSU-327, Cis-N-(3-Chloro-4-fluorophenyl)-2-methyl-5-(4-(1-methyl-1H-1,2,4-triazol-5-yl)thiophen-2-yl)-1,2,6-thiadiazinane-3-carboxamide 1,1-dioxide] | < 1
CN1C(C(=O)Nc2ccc(F)c(Cl)c2)CC(c2ccc(-c3nncn3C)s2)NS1(=O)=O (racemic) [HBV-CSU-324, Cis-N-(3-Chloro-4-fluorophenyl)-2-methyl-5-(5-(4-methyl-4H-1,2,4-triazol-3-yl)thiophen-2-yl)-1,2,6-thiadiazinane-3-carboxamide 1,1-dioxide] | < 1
CCn1cc(-c2ccc([C@H]3C[C@@H](C(=O)Nc4ccc(F)c(Cl)c4)N(C)S(=O)(=O)N3)s2)cn1 [HBV-CSU-291-ISO-I, Cis-N-(3-chloro-4-fluorophenyl)-5-(5-(1-ethyl-1H-pyrazol-4-yl)thiophen-2-yl)-2-methyl-1,2,6-thiadiazinane-3-carboxamide 1,1-dioxide] | < 1
CN1[C@H](C(=O)Nc2ccc(F)c(Cl)c2)C[C@H](c2ccc(C(N)=O)cc2)NS1(=O)=O [HBV-CSU-214-ISO-II, Cis-5-(4-Carbamoylphenyl)-N-(3-chloro-4-fluorophenyl)-2-methyl-1,2,6-thiadiazinane-3-carboxamide 1,1-dioxide] | < 1
[2H]C([2H])([2H])N1[C@H](C(=O)Nc2ccc(F)c(Cl)c2)C[C@H](c2ccc(Br)s2)NS1(=O)=O [HBV-CSU-370-ISO-I, Cis-5-(5-bromothiophen-2-yl)-N-(3-chloro-4-fluorophenyl)-2-(methyl-d3)-1,2,6-thiadiazinane-3-carboxamide 1,1-dioxide] | < 1
COCCN1[C@H](C(=O)Nc2ccc(F)c(Cl)c2)C[C@H](c2ccc(F)cc2)NS1(=O)=O [HBV-CSU-210-ISO-II, Cis-N-(3-Chloro-4-fluorophenyl)-5-(4-fluorophenyl)-2-(2-methoxyethyl)-1,2,6-thiadiazinane-3-carboxamide 1,1-dioxide] | < 1
CN1[C@@H](C(=O)Nc2ccc(F)c(Cl)c2)C[C@@H](c2ccc(-c3ccn(C)n3)s2)NS1(=O)=O [HBV-CSU-270-ISO-II, Cis-N-(3-Chloro-4-fluorophenyl)-2-methyl-5-(5-(1-methyl-1H-pyrazol-3-yl)thiophen-2-yl)-1,2,6-thiadiazinane-3-carboxamide 1,1-dioxide] | 1 to 5
CN1C(C(=O)Nc2cc(F)c(F)c(F)c2)CC(c2cccs2)NS1(=O)=O (racemic) [HBV-CSU-036, Cis-2-Methyl-5-(thiophen-2-yl)-N-(3,4,5-trifluorophenyl)-1,2,6-thiadiazinane-3-carboxamide 1,1-dioxide] | < 1
[2H]C([2H])([2H])N1C(C(=O)Nc2ccc(F)c(Cl)c2)CC(c2ccc(-c3cn(C([2H])([2H])[2H])cn3)s2)NS1(=O)=O (stereo not drawn) [HBV-CSU-374] | < 1
[2H]C([2H])([2H])N1[C@H](C(=O)Nc2ccc(F)c(Cl)c2)C[C@H](c2ncc(-c3cn(C)cn3)s2)NS1(=O)=O [HBV-CSU-338-ISO-I, Cis-N-(3-Chloro-4-fluorophenyl)-2-(methyl-d3)-5-(5-(1-methyl-1H-imidazol-4-yl)thiazol-2-yl)-1,2,6-thiadiazinane-3-carboxamide 1,1-dioxide] | < 1
Cc1sc([C@@H]2C[C@H](C(=O)Nc3ccc(F)c(Cl)c3)N(C)S(=O)(=O)N2)cc1-c1cnn(C)c1 [HBV-CSU-304-ISO-II, Cis-N-(3-Chloro-4-fluorophenyl)-2-methyl-5-(5-methyl-4-(1-methyl-1H-pyrazol-4-yl)thiophen-2-yl)-1,2,6-thiadiazinane-3-carboxamide 1,1-dioxide] | > 5
CCN(CC)CCCN1[C@@H](C(=O)Nc2ccc(F)c(Cl)c2)C[C@@H](c2nccs2)NS1(=O)=O [HBV-CSU-101-ISO-I, Cis-N-(3-Chloro-4-fluorophenyl)-2-(3-(diethylamino)propyl)-5-(thiazol-2-yl)-1,2,6-thiadiazinane-3-carboxamide 1,1-dioxide] | > 5
CN1C(C(=O)Nc2ccc(F)c(Cl)c2)CC(c2cc(-c3ncn(C)n3)cs2)NS1(=O)=O (racemic) [HBV-CSU-326, Cis-N-(3-chloro-4-fluorophenyl)-2-methyl-5-(4-(1-methyl-1H-1,2,4-triazol-3-yl)thiophen-2-yl)-1,2,6-thiadiazinane-3-carboxamide 1,1-dioxide] | < 1
C=CCN1[C@H](C(=O)Nc2ccc(F)c(Cl)c2)C[C@H](c2nccs2)NS1(=O)=O [HBV-CSU-094-ISO-II, Cis-2-Allyl-N-(3-chloro-4-fluorophenyl)-5-(thiazol-2-yl)-1,2,6-thiadiazinane-3-carboxamide 1,1-dioxide] | < 1
CN1[C@@H](C(=O)Nc2ccc(F)c(Cl)c2)C[C@H](c2ncc(Br)s2)NS1(=O)=O [HBV-CSU-122-Trans-ISO-I, (3R,5R)-5-(5-bromothiazol-2-yl)-N-(3-chloro-4-fluorophenyl)-2-methyl-1,2,6-thiadiazinane-3-carboxamide 1,1-dioxide] | 1 to 5
CN1C(C(=O)Nc2ccc(F)c(Cl)c2)CC(c2ccns2)NS1(=O)=O (stereo not drawn) [HBV-CSU-057, Cis-N-(3-chloro-4-fluorophenyl)-5-(isothiazol-5-yl)-2-methyl-1,2,6-thiadiazinane-3-carboxamide 1,1-dioxide] | < 1
CN1C(C(=O)Nc2ccc(F)c(Cl)c2)CC(c2cc(Br)c(Cl)s2)NS1(=O)=O (stereo not drawn) [HBV-CSU-330, Cis-5-(4-bromo-5-chlorothiophen-2-yl)-N-(3-chloro-4-fluorophenyl)-2-methyl-1,2,6-thiadiazinane-3-carboxamide 1,1-dioxide] | < 1
CN1[C@H](C(=O)Nc2ccc(F)c(Br)c2)C[C@H](c2cccs2)NS1(=O)=O [HBV-CSU-016-ISO-I, Cis-N-(3-Bromo-4-fluorophenyl)-2-methyl-5-(thiophen-2-yl)-1,2,6-thiadiazinane-3-carboxamide 1,1-dioxide] | < 1
Cc1cc(C2CC(C(=O)Nc3ccc(F)c(Cl)c3)N(C)S(=O)(=O)N2)sc1-c1cnn(C)c1 (racemic) [HBV-CSU-300, Cis-N-(3-Chloro-4-fluorophenyl)-5-(4-methyl-5-(1-methyl-1H-pyrazol-4-yl)thiophen-2-yl)-2-methyl-1,2,6-thiadiazinane-3-carboxamide 1,1-dioxide] | < 1
CN1[C@H](C(=O)Nc2ccc(F)c(Br)c2)C[C@H](c2ncc(-c3cn(C)cn3)s2)NS1(=O)=O [HBV-CSU-369, (3S,5R)—N-(3-bromo-4-fluorophenyl)-2-methyl-5-(5-(1-methyl-1H-imidazol-4-yl)thiazol-2-yl)-1,2,6-thiadiazinane-3-carboxamide 1,1-dioxide] | < 1
CN1[C@H](C(=O)Nc2ccc(F)c(Cl)c2)C[C@H](c2ncc(-c3ccccc3)s2)NS1(=O)=O | < 1
CN1C(C(=O)Nc2ccc(F)c(Cl)c2)CC(c2nccs2)NS1(=O)=O (racemic) [HBV-CSU-027, Cis-N-(3-chloro-4-fluorophenyl)-2-methyl-5-(thiazol-2-yl)-1,2,6-thiadiazinane-3-carboxamide 1,1-dioxide] | < 1
COc1cccc(C2CC(C(=O)Nc3ccc(F)c(Cl)c3)N(C)S(=O)(=O)N2)c1 (stereo not drawn) [HBV-CSU-204, Cis-N-(3-Chloro-4-fluorophenyl)-5-(3-methoxyphenyl)-2-methyl-1,2,6-thiadiazinane-3-carboxamide 1,1-dioxide] | < 1
CN1[C@@H](C(=O)Nc2ccc(F)c(Cl)c2)C[C@@H](c2ncc(-c3cccnc3)s2)NS1(=O)=O [HBV-CSU-175-ISO-II, Cis-N-(3-Chloro-4-fluorophenyl)-2-methyl-5-(5-(pyridin-3-yl)thiazol-2-yl)-1,2,6-thiadiazinane-3-carboxamide 1,1-dioxide] | < 1
